From US20170190671A1, “BIS(ARYL)CATECHOL DERIVATIVES AS HERBICIDES” (E I DU PONT DE NEMOURS AND COMPANY, priority 2014, published 2017)

Assays:
Assay in all cases: Test C preemergence
Assay type in all cases: in vivo
[1] = tested on: Italian ryegrass (Lolium multiflorum); conditions: Lolium multiflorum, pre-emergence, 336 h, scale 0 to 100, read-out: Plant response rating, Ryegrass, Italian
Method in brief: (§1)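 Greenhouse test, preemergence on seeded soil or postemergence on 1- to 4-leaf plants. Response is a visual 0-100 rating versus controls, taken 13-15 days after treatment.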

[2] = tested on: barnyardgrass (Echinochloa crus-galli); conditions: Echinochloa crus-galli, pre-emergence, read-out: Plant response rating, Barnyardgrass
Method in brief: as §1

[3] = tested on: blackgrass (Alopecurus myosuroides); conditions: Alopecurus myosuroides, pre-emergence, 336 h, scale 0 to 100, read-out: Plant response rating, Blackgrass
Method in brief: as §1

corn (Zea mays) = conditions: Zea mays, pre-emergence, 336 h, scale 0 to 100
Method in brief: as §1

[4] = tested on: galium (catchweed bedstraw, Galium aparine); conditions: Galium, pre-emergence, 336 h, scale 0 to 100, read-out: Plant response rating, Galium
Method in brief: as §1

[5] = tested on: giant foxtail (Setaria faberii); conditions: Setaria faberi, pre-emergence, 336 h, scale 0 to 100, read-out: Plant response rating, Foxtail, Giant
Method in brief: as §1

[6] = tested on: lambsquarters (Chenopodium album); conditions: Chenopodium album, pre-emergence, 336 h, scale 0 to 100, read-out: Plant response rating, Lambsquarters
Method in brief: as §1

[7] = tested on: large (Lg) crabgrass (Digitaria sanguinalis); conditions: Digitaria sanguinalis, pre-emergence, 336 h, scale 0 to 100, read-out: Plant response rating, Crabgrass, Large
Method in brief: as §1

[8] = tested on: oilseed rape (Brassica napus); conditions: Brassica napus, pre-emergence, scale 0 to 100, read-out: Plant response rating, Oilseed Rape
Method in brief: as §1

[9] = tested on: ragweed (common ragweed, Ambrosia elatior); conditions: Ambrosia artemisiifolia, pre-emergence, 336 h, scale 0 to 100, read-out: Plant response rating, Ragweed
Method in brief: as §1

soybean (Glycine max) = conditions: Glycine max, pre-emergence, scale 0 to 100, read-out: Plant response rating, Soybean
Method in brief: as §1

[10] = tested on: velvetleaf (Abutilon theophrasti); conditions: Abutilon theophrasti, pre-emergence, scale 0 to 100, read-out: Plant response rating, Velvetleaf
Method in brief: as §1

[11] = tested on: waterhemp (common waterhemp, Amaranthus rudis); conditions: Amaranthus tuberculatus, pre-emergence, scale 0 to 100, read-out: Plant response rating, Waterhemp
Method in brief: as §1

[12] = tested on: winter wheat (Triticum aestivum); conditions: Triticum aestivum, pre-emergence, 336 h, scale 0 to 100, read-out: Plant response rating, Wheat
Method in brief: as §1

[13] = tested on: yellow nutsedge (Cyperus esculentus); conditions: Cyperus, pre-emergence, 336 h, scale 0 to 100, read-out: Plant response rating, Nutsedge, Yellow
Method in brief: as §1

N#Cc1cccc(Oc2ncc(Cl)cn2)c1Oc1ncc(Br)cn1 [Compound 4, 2-[(5-bromo-2-pyrimidinyl)oxy]-3-[(5-chloro-2-pyrimidinyl)oxy]benzonitrile]
45%: pest or weed control at 62 g/ha ([1]; 62 g ai/ha, preemergence) | pest or weed control at 31 g/ha ([10]; 31 g ai/ha, preemergence) | pest or weed control at 16 g/ha ([11]; Preemergence, 16 g ai/ha)
100%: pest or weed control at 125 g/ha ([2]; 125 g ai/ha, preemergence, scale 0 to 100) | pest or weed control at 125 g/ha ([4]; 125 g ai/ha, preemergence) | pest or weed control at 62 g/ha ([5]; 62 g ai/ha, preemergence) | pest or weed control at 125 g/ha ([5]; 125 g ai/ha, preemergence) | pest or weed control at 125 g/ha ([6]; 125 g ai/ha, preemergence) | pest or weed control at 31 g/ha ([7]; 31 g ai/ha, preemergence) | pest or weed control at 62 g/ha ([7]; 62 g ai/ha, preemergence) | pest or weed control at 125 g/ha ([7]; 125 g ai/ha, preemergence) | plant injury at 125 g/ha ([8]; 125 g ai/ha, preemergence) | pest or weed control at 125 g/ha ([10]; 125 g ai/ha, preemergence) | pest or weed control at 31 g/ha ([11]; 31 g ai/ha, preemergence) | pest or weed control at 62 g/ha ([11]; 62 g ai/ha, preemergence) | pest or weed control at 125 g/ha ([11]; 125 g ai/ha, preemergence)
30%: pest or weed control at 31 g/ha ([3]; 31 g ai/ha, preemergence) | pest or weed control at 31 g/ha ([4]; 31 g ai/ha, preemergence) | pest or weed control at 62 g/ha ([4]; 62 g ai/ha, preemergence) | plant injury at 31 g/ha (soybean (Glycine max); 31 g ai/ha, preemergence) | pest or weed control at 62 g/ha ([13]; 62 g ai/ha, preemergence)
35%: Corn plant response rating (crop injury, 0 = no effect, 100 = complete kill) at 125 g/ha (corn (Zea mays); 125 g ai/ha, preemergence)
5%: pest or weed control at 31 g/ha ([1]; 31 g ai/ha, preemergence) | Corn plant response rating (crop injury, 0 = no effect, 100 = complete kill) at 31 g/ha (corn (Zea mays); 31 g ai/ha, preemergence) | pest or weed control at 16 g/ha ([4]; Preemergence, 16 g ai/ha) | pest or weed control at 62 g/ha ([9]; 62 g ai/ha, preemergence) | plant injury at 16 g/ha (soybean (Glycine max); Preemergence, 16 g ai/ha) | pest or weed control at 16 g/ha ([10]; Preemergence, 16 g ai/ha) | plant injury at 125 g/ha ([12]; 125 g ai/ha, preemergence)
95%: pest or weed control at 62 g/ha ([3]; 62 g ai/ha, preemergence) | pest or weed control at 125 g/ha ([3]; 125 g ai/ha, preemergence) | pest or weed control at 31 g/ha ([6]; 31 g ai/ha, preemergence) | plant injury at 125 g/ha (soybean (Glycine max); 125 g ai/ha, preemergence)
70%: pest or weed control at 125 g/ha ([1]; 125 g ai/ha, preemergence) | pest or weed control at 125 g/ha ([9]; 125 g ai/ha, preemergence)
85%: pest or weed control at 62 g/ha ([2]; 62 g ai/ha, preemergence, scale 0 to 100) | pest or weed control at 62 g/ha ([6]; 62 g ai/ha, preemergence)
0%: pest or weed control at 16 g/ha ([1]; Preemergence, 16 g ai/ha) | pest or weed control at 16 g/ha ([3]; Preemergence, 16 g ai/ha) | Corn plant response rating (crop injury, 0 = no effect, 100 = complete kill) at 16 g/ha (corn (Zea mays); Preemergence, 16 g ai/ha) | pest or weed control at 16 g/ha ([9]; Preemergence, 16 g ai/ha) | plant injury at 31 g/ha ([12]; 31 g ai/ha, preemergence) | plant injury at 62 g/ha ([12]; 62 g ai/ha, preemergence) | plant injury at 16 g/ha ([12]; Preemergence, 16 g ai/ha) | pest or weed control at 31 g/ha ([13]; 31 g ai/ha, preemergence) | pest or weed control at 16 g/ha ([13]; Preemergence, 16 g ai/ha)
90%: plant injury at 62 g/ha ([8]; 62 g ai/ha, preemergence)
98%: pest or weed control at 31 g/ha ([5]; 31 g ai/ha, preemergence)
20%: pest or weed control at 16 g/ha ([2]; Preemergence, 16 g ai/ha, scale 0 to 100 (0 no effect, 100 complete control))
50%: plant injury at 62 g/ha (soybean (Glycine max); 62 g ai/ha, preemergence)
60%: pest or weed control at 31 g/ha ([2]; 31 g ai/ha, preemergence, scale 0 to 100)
10%: Corn plant response rating (crop injury, 0 = no effect, 100 = complete kill) at 62 g/ha (corn (Zea mays); 62 g ai/ha, preemergence) | pest or weed control at 16 g/ha ([5]; Preemergence, 16 g ai/ha) | pest or weed control at 31 g/ha ([9]; 31 g ai/ha, preemergence)
15%: plant injury at 16 g/ha ([8]; Preemergence, 16 g ai/ha)
75%: pest or weed control at 16 g/ha ([6]; Preemergence, 16 g ai/ha) | pest or weed control at 16 g/ha ([7]; Preemergence, 16 g ai/ha) | plant injury at 31 g/ha ([8]; 31 g ai/ha, preemergence)
55%: pest or weed control at 62 g/ha ([10]; 62 g ai/ha, preemergence) | pest or weed control at 125 g/ha ([13]; 125 g ai/ha, preemergence)
